# Experimental data from patent US6376521B1, “A3 adenosine receptor antagonists” (The United States of America as represented by the …, priority 1998, dated 2002).
# Experiments:
# human A3 receptors = molecular target: T1, human A3 receptors (Homo sapiens, UniProt P0DMS8); assay: Displacement of specific [125I]AB-MECA binding at human A3 receptors expressed in HEK cells, in membranes; settings: for rA1/hA3: ratio of affinities rat A1 vs human A3; for Ki: Table 2, compounds 33-58, [125I]AB-MECA, HEK cell membranes, n = 3-4, read-out: hA3 Ki ± S.E.M.
# T1 construct: expressed in transfected cells
# T1 sequence (P0DMS8 1-318): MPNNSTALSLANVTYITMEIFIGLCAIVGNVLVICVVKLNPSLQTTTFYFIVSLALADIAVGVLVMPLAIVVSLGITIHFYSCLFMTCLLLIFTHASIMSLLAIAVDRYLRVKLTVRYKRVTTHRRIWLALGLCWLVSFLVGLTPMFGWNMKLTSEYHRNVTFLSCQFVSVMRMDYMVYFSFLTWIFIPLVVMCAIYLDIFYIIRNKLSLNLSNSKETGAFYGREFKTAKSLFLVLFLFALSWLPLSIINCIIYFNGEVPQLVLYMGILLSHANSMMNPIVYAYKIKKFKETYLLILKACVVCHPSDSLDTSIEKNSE
# A2A adenosine receptors = molecular target: T2, A2A adenosine receptors (Rattus norvegicus, UniProt P30543); assay: Displacement of specific [3H]CGS 21680 binding in rat striatal membranes; settings: for Ki: Table 2, compounds 33-58, [3H]CGS 21680, rat striatal membranes, n = 3-6, read-out: rA2A Ki ± S.E.M.
# T2 construct: from tissue
# A1 adenosine receptors = molecular target: T3, A1 adenosine receptors (Rattus norvegicus, UniProt P25099); assay: Displacement of specific [3H]R-PIA binding in rat brain membranes; settings: Table 2, compounds 33-58; [3H]R-PIA, rat brain membranes, n = 3-5; read-out: rA1 Ki ± S.E.M.
# T3 construct: from tissue
# T3 sequence (P25099 1-326): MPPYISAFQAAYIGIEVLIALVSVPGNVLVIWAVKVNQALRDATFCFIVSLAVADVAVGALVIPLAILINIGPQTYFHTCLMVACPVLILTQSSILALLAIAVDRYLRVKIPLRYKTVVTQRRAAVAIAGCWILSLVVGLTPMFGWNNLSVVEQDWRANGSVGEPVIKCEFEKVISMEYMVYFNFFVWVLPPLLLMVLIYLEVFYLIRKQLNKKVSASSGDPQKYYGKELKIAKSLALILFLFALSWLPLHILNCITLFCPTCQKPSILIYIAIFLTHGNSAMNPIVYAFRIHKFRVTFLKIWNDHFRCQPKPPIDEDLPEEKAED
# rat A3 receptors = molecular target: T4, rat A3 receptors (Rattus norvegicus, UniProt P28647); assay: Displacement of specific [125I]AB-MECA binding at rat A3 receptors stably expressed in CHO cells; settings: Table 4
# T4 construct: expressed in transfected cells
# T4 sequence (P28647 1-320): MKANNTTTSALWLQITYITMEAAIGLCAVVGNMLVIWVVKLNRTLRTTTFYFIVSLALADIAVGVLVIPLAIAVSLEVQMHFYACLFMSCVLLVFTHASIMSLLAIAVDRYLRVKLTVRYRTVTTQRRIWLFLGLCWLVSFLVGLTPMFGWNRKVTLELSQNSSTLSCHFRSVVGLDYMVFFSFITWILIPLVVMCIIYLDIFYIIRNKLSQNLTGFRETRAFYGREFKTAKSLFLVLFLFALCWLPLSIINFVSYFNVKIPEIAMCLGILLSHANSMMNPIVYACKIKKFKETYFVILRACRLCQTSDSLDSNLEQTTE
# T2 sequence (P30543 whole entry): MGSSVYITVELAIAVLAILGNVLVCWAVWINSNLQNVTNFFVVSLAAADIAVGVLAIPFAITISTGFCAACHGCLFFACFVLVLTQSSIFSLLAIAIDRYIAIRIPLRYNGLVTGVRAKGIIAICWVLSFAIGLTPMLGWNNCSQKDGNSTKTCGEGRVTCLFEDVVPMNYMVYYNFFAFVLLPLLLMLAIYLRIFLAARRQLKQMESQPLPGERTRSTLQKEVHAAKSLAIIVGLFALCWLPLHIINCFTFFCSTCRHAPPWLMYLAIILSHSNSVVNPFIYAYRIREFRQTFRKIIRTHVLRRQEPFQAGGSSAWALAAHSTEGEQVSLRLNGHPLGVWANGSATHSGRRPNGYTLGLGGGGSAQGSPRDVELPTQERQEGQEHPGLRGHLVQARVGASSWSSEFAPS
compound,measurement,setting,value
CCCOC(=O)c1c(-c2ccccc2)nc(CC)c(C(=O)SCCF)c1CCC [Compound 15],rA1/hA3,human A3 receptors; Table 2,150
CCCOC(=O)c1c(-c2ccccc2)nc(CC)c(C(=O)SCC(F)(F)F)c1CCC [Compound 16],rA1/hA3,human A3 receptors; Table 2,460
CCCc1c(C(=O)SCC)c(CC)nc(-c2ccccc2)c1C(=O)OCCCF [Compound 23],rA1/hA3,human A3 receptors; Table 2,630
CCCc1c(C(=O)SCC)c(CC)nc(-c2ccccc2)c1C(=O)OCC(F)(F)C(F)(F)F [Compound 24],rA1/hA3,human A3 receptors; Table 2,13
CCCOC(=O)c1c(-c2ccccc2F)nc(CC)c(C(=O)SCC)c1CCC [Compound 25],rA1/hA3,human A3 receptors; Table 2,590
CCCOC(=O)c1c(-c2cccc(F)c2)nc(CC)c(C(=O)SCC)c1CCC [Compound 26],rA1/hA3,human A3 receptors; Table 2,280
CCCOC(=O)c1c(-c2ccc(F)cc2)nc(CC)c(C(=O)SCC)c1CCC [Compound 27],rA2A percentage of specific binding displaced,"A2A adenosine receptors; Table 2, at 10^−4 M",50% (10^−4)
same,rA1/hA3,human A3 receptors; Table 2,˜400
CCCOC(=O)c1c(-c2ccccc2)nc(CC)c2c1CCOC2=O [Compound 29],hA3 displacement of specific binding (class d),"human A3 receptors; Table 2, at 10^−4 M",d (10^−4) (Displacement of <10% of specific binding at the indicated concentration (M).)
CCOC(=O)c1c(-c2ccccc2)nc(CC)c2c1CCCNC2=O [Compound 30],rA2A displacement of specific binding (class d),"A2A adenosine receptors; Table 2, at 10^−4 M",d (10^−4) (Displacement of <10% of specific binding at the indicated concentration (M).)
CCOC(=O)c1c(C)nc(-c2ccccc2)c(C(=O)OCC)c1C [Compound 33],rA1/hA3,human A3 receptors; Table 2,1.7
"CCCOC(=O)c1c(C)nc(-c2ccccc2)c(C(=O)OCC)c1C [Compound 34, 3-Propyl 5-ethyl 2,4-dimethyl-6-phenylpyridine-3,5-dicarboxylate]",Ki,A1 adenosine receptors,5050 ± 540 nM
same,Ki,A2A adenosine receptors,24500 ± 8500 nM
same,Ki,human A3 receptors,215 ± 22 nM
same,rA1/hA3,human A3 receptors; Table 2,23
"CCOC(=O)c1c(C)nc(-c2ccccc2)c(C(=O)OCC)c1CC [Compound 35, 3,5-Diethyl 2-methyl-4-ethyl-6-phenylpyridine-3,5-dicarboxylate]",Ki,A1 adenosine receptors,3360 ± 600 nM
same,Ki,A2A adenosine receptors,3690 ± 1250 nM
same,Ki,human A3 receptors,176 ± 38 nM
same,rA1/hA3,human A3 receptors; Table 2,19
"CCOC(=O)c1c(C)nc(-c2ccccc2)c(C(=O)OCC)c1C=O [Compound 41, 3,5-Diethyl 2-methyl-4-formyl-6-phenylpyridine-3,5-dicarboxylate]",Ki,A1 adenosine receptors,9560 ± 4090 nM
same,Ki,A2A adenosine receptors,2560 ± 130 nM
CCOC(=O)c1c(C)nc(-c2ccccc2)c(C(=O)OCC)c1C=Cc1ccccc1 [Compound 42],Ki,A2A adenosine receptors,2400 ± 220 nM
"CCCOC(=O)c1c(-c2ccccc2)nc(CC)c(C(=O)SCC)c1CC [Compound 49a, 5-Propyl 2,4-diethyl-3-(ethylsulfanylcarbonyl)-6-phenylpyridine-5-carboxylate]",Ki,"rat A3 receptors; [125I]AB-MECA, CHO cells, n = 3-5, read-out: rA3 Ki",183 ± 33 nM
same,rA3/hA3,rat A3 receptors; ratio of affinities at rat vs. human A3 receptors,22
same,rA1/rA3,rat A3 receptors; ratio of affinities rat A1 vs rat A3,42
same,Ki,A1 adenosine receptors,7770 ± 1830 nM
same,Ki,human A3 receptors,8.29 nM
same,rA1/hA3,human A3 receptors; Table 2,940
